Six compounds from patent publication US12484581B2, “Agricultural or horticultural insecticide or animal ectoparasite or endoparasite control agent each comprising a condensed heterocyclic compound having a substituted cyclopropane-oxadiazole group or a salt thereof as active ingredient, and method for using the insecticide or the control agent” (NIHON NOHYAKU CO., LTD., priority 2019, dated 2025) can be followed below.

Molecules are shown by their SMILES.

Holding throughout (assay type): in vivo
Data set [1] has as its system Plutella xylostella. Put plainly: whole plant or invertebrate. The following applies: 144 h, Chinese cabbage seedlings with laid eggs dipped about 30 seconds, 6 days after dip treatment, criteria of Test Example 1, read-out: insecticidal efficacy (corrected mortality rate).
Data set [2] has as its system Ctenocephalides felis. Description: whole plant or invertebrate. The following applies: 50 ppm in bovine blood, oral via feeder, adults, following day, read-out: mortality rate.
The test system of data set [3] is Dirofilaria immitis. Description: Larval motility assay on Dirofilaria immitis. The conditions noted are these: 72 h, L1 stage larvae, 3 days, relative to DMSO only, read-out: percent motility inhibition. The method, then: Larval Motility Assay on Dirofilaria immitis
Five hundred L1 stage larvae of D. immitis were diluted in a predetermined conditioned medium and introduced into each well of a 96-well plate. DMSO diluted solutions of various compounds of the present invention were added at the final concentration of 50 ppm to the wells of the 96-well plate. The plate was allowed to stand for 3 days, and then larval motility was examined. The percent motility inhibition in the wells of each treatment was calculated relative to the wells of treatment with DMSO only.

Data set [4] concerns Haemonchus contortus. Description: Larval motility assay on Haemonchus contortus. The following applies: 96 h, L1 stage larvae, 4 days, relative to DMSO only, read-out: percent motility inhibition. The method, then:
Larval Motility Assay on Haemonchus contortus
DMSO diluted solutions of various compounds of the present invention were added at the final concentration of 50 ppm to the wells of a 96-well plate containing a predetermined conditioned medium. Twenty L1 stage larvae of H. contortus were introduced into each well of the 96-well plate. The plate was allowed to stand for 4 days, and then larval motility was examined. The percent motility inhibition in the wells of each treatment was calculated relative to the wells of treatment with DMSO only.

Data set [5] has as its system Laodelphax striatellus. Put plainly: whole plant or invertebrate. The following applies: 192 h, rice seedlings dipped 30 seconds, 3rd-instar larvae, 8 days after inoculation, criteria of Test Example 1, read-out: insecticidal efficacy (corrected mortality rate).
Data set [6] concerns Rhipicephalus sanguineus. Put plainly: Assay for transdermal parasiticidal activity against nymphs of Rhipicephalus sanguineus. The following applies: 100 ppm applied to inside of sample bottles, two days later. An excerpt: DMSO diluted solutions of various compounds of the present invention were individually diluted to the final concentration of 100 ppm with an acetone/triton mixture and applied to the inside of vented sample bottles. After overnight drying, ten nymphs of R. sanguineus were introduced into each bottle, and the mortality rate was examined two days later. Aberrant adults were regarded as the dead.

The term mortality denotes the share of the test organisms that died. As a reminder, the inhibition is the percentage by which the read-out fell short of the control.

For `CCS(=O)(=O)c1cc(-c2noc(C3(C)CC3)n2)cnc1-c1nc2cc(C(F)(F)F)cnc2n1C` [Compound 1-2], the mortality at 500 ppm in data set [1] and in data set [5] was 100% throughout. The mortality at 50 ppm in data set [2] is at least 50%. Also, the inhibition at 50 ppm in data set [3] and in data set [4] was at least 50% each time.
As for `CCS(=O)(=O)c1cc(-c2noc(C3(C(F)(F)F)CC3)n2)cnc1-c1nc2cc(C(F)(F)F)cnc2n1C` [Compound 1-4, 3-(5-ethylsulfonyl-6-(3-methyl-6-trifluoromethyl-3H-imidazo [4,5-b]pyridin-2-yl)pyridin-3-yl)-5-(1-trifluoromethylcyclopropyl)-1,2,4-oxadiazole], the mortality at 500 ppm in data set [1] and in data set [5] was 100% each time. In addition, the “parasiticidal activity (mortality rate)” value in data set [6] is “parasiticidal activity”. Besides, the mortality at 50 ppm in data set [2] is at least 50%. Further, the inhibition at 50 ppm in data set [3] and in data set [4] was at least 50% throughout.
Regarding `CCS(=O)(=O)c1cc(-c2noc(C3(c4ccccc4)CC3)n2)cnc1-c1nc2cc(C(F)(F)F)cnc2n1C` [Compound 1-5], the mortality at 500 ppm in data set [1] and in data set [5] was 100% each time. Besides, the “parasiticidal activity (mortality rate)” value in data set [6] was “parasiticidal activity”. The inhibition at 50 ppm in data set [3] and in data set [4] was at least 50% each time.
On to `CCS(=O)(=O)c1cc(-c2noc(C3CC3C)n2)cnc1-c1nc2cc(C(F)(F)F)cnc2n1C` (stereo not drawn) [Compound 1-6, 3-(5-ethylsulfonyl-6-(3-methyl-6-trifluoromethyl-3H-imidazo[4,5-b]pyridin-2-yl)pyridin-3-yl)-5-(2-methylcyclopropyl)-1,2,4-oxadiazole], for which the mortality at 500 ppm in data set [1] and in data set [5] was 100% throughout. Moreover, the inhibition at 50 ppm in data set [3] and in data set [4] was at least 50% throughout.
For the compound `CCS(=O)(=O)c1cc(-c2noc(C3(C(F)(F)F)CC3)n2)cnc1-c1nc2cc(C(F)(F)F)ncc2n1C` [Compound 1-7], the mortality at 500 ppm in data set [1] and in data set [5] was 100% throughout. In addition, the mortality at 50 ppm in data set [2] is at least 50%. In addition, the inhibition at 50 ppm in data set [3] and in data set [4] was at least 50% each time.
With `CCS(=O)(=O)c1cc(-c2noc(C3(C(F)(F)F)CC3)n2)cnc1-c1nc2cc([S+]([O-])C(F)(F)F)ccc2n1C` (stereo not drawn) [Compound 1-8], the mortality at 500 ppm in data set [1] and in data set [5] was 100% in each case.
